System: seborrheic keratoses (SKs)
Experiment: Formulary and performance observations on ingredients added to the SK treatment compositions
Format: in vivo, human
Conditions: for performance on addition to the BWE composition: added antioxidant, with BWE; for improvement of the treatment of seborrheic keratosis: dietary antioxidant
Description: A number of formulary and performance observations were made in the various aforementioned pilot and case studies as well as additional variants thereof not reported here. […] Additionally, the addition of keratolytic agents and emollients appeared to help keep the composition from drying and improved the penetration of the composition into the SK.

Row | SMILES | performance on addition to the BWE composition | improvement of the treatment of seborrheic keratosis
1 | CC(=O)N[C@@H](CS)C(=O)O [N-acetyl cysteine] | no visible improvement | not found to improve
2 | O=C(O)/C=C/c1ccc(O)c(O)c1 [caffeic acid] | no visible improvement | not found to improve
3 | CC(C)=CCC/C(C)=C/C=C/C(C)=C/C=C/C(C)=C/C=C/C=C(C)/C=C/C=C(C)/C=C/C=C(\C)CCC=C(C)C [lycopene] | no visible improvement | not found to improve
4 | Oc1ccc(C=Cc2cc(O)cc(O)c2)cc1 [resveratrol] | no visible improvement | not found to improve

From patent US11903990B2, “Compositions and methods for treating and removing seborrheic keratoses” (priority 2017, dated 2024)
